Measurements: patent publication US20230201383A1, “PSMA TARGETING UREA-BASED LIGANDS FOR PROSTATE CANCER RADIOTHERAPY AND IMAGING” (Rigshospitalet, priority 2020, published 2023)
“Also recorded” adds a separate entry of the source. Counter-ions that a name gives are not always drawn.

Columns and labels:
[1] = test system: PSMA(+) LNCaP cells; assay: Internalisation and cell surface binding of 68Ga-labeled compounds in LNCaP cells; assay type: cell-based, human
Procedure: Compounds Ii, Ij, Ik, Il, Im and In was provided using the same method as disclosed in Example 3 and in vitro test of the binding affinity and internalisation of the compounds were examined using the method as described in Benesova et al, 2016^9. The iodine isotope used was ^127I.
For internalisation determinations, a day before the experiment, PSMA(+) LNCaP cells were seeded in a poly-L-lysine coated 24-well plate (10^5 cells per well) and maintained at 37° C. in an atmosphere of 5% CO2 under supplemented RMPI medium (10% Fetal Calf Serum, 1% sodium pyruvate, 1% FIS). Cells were incubated with 250 μL of radiolabelled compound diluted in RPMI medium (final concentration of [^68Ga]-peptide: 30 nM) and 500 μM of PMPA (2-phosphonomethyl-pentanedioic acid) for the blocked series, for 45 min at 37° C. Cellular uptake was interrupted by washing the cells with ice-cold PBS (3×1 mL). Surface bound radioactivity was removed by incubating twice with 0.5 mL glycine (50 mM, pH=2.8) for 5 min. Thereafter, cells were washed with PBS (1 mL) and lysed employing NaOH (0.3 M) during 10 min. Lysates and surface-bound activity were collected and measured in a gamma-counter (Perkin Elmer 2480, Wizard, Gamma Counter). The cell uptake was calculated as percent of the initially added radioactivity bound to […].
For internalisation studies androgen-sensitive human prostate adenocarcinoma cells (LNCaP) highly overexpressing PSMA were incubated with the ^68Ga-labeled compounds resulting in specific cell surface binding of all tested compounds (Table 2).

[2] = test system: LNCaP-tumor-bearing athymic nude mice; assay: Small-animal PET imaging: tumor uptake and pharmacokinetic profile; assay type: in vivo; settings: for Binding profile and biodistribution/pharmacokinetics compared with PSMA-617: direct head-to-head comparison with PSMA-617
Procedure: For the experimental tumor models 1×10^7 cells of LNCaP (in 50% Matrigel; Becton Dickinson) were subcutaneously inoculated into the right flank of 7- to 8-week-old male BALB/c nu/nu mice (Janvier). For imaging studies, mice were anesthetized (2% isoflurane) and 0.5 nmol of the ^68Ga-labeled compound in 0.9% NaCl (pH 7) were injected into the tail vein. PET imaging was performed with μPET/MRI scanner (BioSpec 3T, Bruker) with a dynamic scan for 60 min. The images were iteratively reconstructed (MLEM 0.5 algorithm, 12 iterations) and were converted to SUV images. Quantification was done using a ROI (region of interest) technique and data in expressed in time activity curves as SUVbody weight. All animal experiments complied with the current laws of the Federal Republic of Germany.
FIGS. 2 to 7 show the pharmacokinetic study with small-animal PET imaging. Time activity curves for non-target organs and tumor after injection of 0.5 nmol ^68Ga-labeled compounds in LNCaP-tumor-bearing athymic nude mice (right trunk) up to 60 min p.i. SUV=standardized uptake value.

[3] = 68Ga-labeled compounds, 30 nM, 45 min at 37° C., LNCaP cells, specific uptake by blockage with 500 μM 2-PMPA, mean ± SD (n=3)
[4] = 68Ga-labeled compounds, LNCaP cells
[5] = 0.5 nmol 68Ga-labeled compound i.v., PET up to 60 min p.i., time activity curves (SUV)
[6] = 68Ga-labeled compounds, LNCaP cells, trifluoroacetic acid salt

SMILES | Specifically cell surface bound [1, 3] [% IA/10^5 cells] | Specifically internalised [1, 3] [% IA/10^5 cells] | Internalisation compared with PSMA-617 (in words) [1, 4] | Tumor accumulation (reversibility) [2, 5] | Specifically cell surface bound ([1]; 0.75 h, 0.03 µM) [% IA/10^5 cells] | Internalisation compared with PSMA-617 (in words) [1, 6] | Tumor-to-muscle ratio compared with PSMA-617 [2, 5] | Binding profile and biodistribution/pharmacokinetics compared with PSMA-617 [2] | Tumor uptake compared with PSMA-617 [2, 5]
O=C(O)CC[C@H](NC(=O)N[C@@H](CCCCNC(=O)[C@H](Cc1ccc(I)cc1)NC(=O)[C@H]1CC[C@H](CNC(=O)CN2CCN(CC(=O)O)CCN(CC(=O)O)CCN(CC(=O)O)CC2)CC1)C(=O)O)C(=O)O [Ik, (((S)-1-carboxy-5-((S)-3-(4-iodophenyl)-2-((1r,4S)-4-((2-(4,7,10-tris(carboxymethyl)-1,4,7,10-tetraazacyclododecan-1-yl)acetamido)methyl)cyclohexane-1-carboxamido)propanamido)pentyl)carbamoyl)-L-glutamic acid trifluoroacetic acid salt] | 0.7 ± 0.1 | 0.6 ± 0.3 | comparable to PSMA-617 | more reversible tumor accumulation |  |  |  |  | 
O=C(O)CC[C@H](NC(=O)N[C@@H](CCCCNC(=O)[C@@H](Cc1c[nH]c2ccc(I)cc12)NC(=O)[C@H]1CC[C@H](CNC(=O)CN2CCN(CC(=O)O)CCN(CC(=O)O)CCN(CC(=O)O)CC2)CC1)C(=O)O)C(=O)O [Il, (((S)-1-carboxy-5-((R)-3-(5-iodo-1H-indol-3-yl)-2-((1r,4R)-4-((2-(4,7,10-tris(carboxymethyl)-1,4,7,10-tetraazacyclododecan-1-yl)acetamido)methyl)cyclohexane-1-carboxamido)propanamido)pentyl)carbamoyl)-L-glutamic acid trifluoroacetic acid salt] | 1.6 ± 0.4 | 0.6 ± 0.2 | comparable to PSMA-617 |  |  |  |  |  | 
O=C(O)CC[C@H](NC(=O)N[C@@H](CCCCNC(=O)[C@H](Cc1ccc2ccccc2c1)NC(=O)[C@H](Cc1ccc(I)cc1)NC(=O)CN1CCN(CC(=O)O)CCN(CC(=O)O)CCN(CC(=O)O)CC1)C(=O)O)C(=O)O [In, (((S)-1-carboxy-5-((S)-2-((S)-3-(4-iodophenyl)-2-(2-(4,7,10-tris(carboxymethyl)-1,4,7,10-tetraazacyclododecan-1-yl)acetamido)propanamido)-3-(naphthalen-2-yl)propanamido)pentyl)carbamoyl)-L-glutamic acid trifluoroacetic acid salt] | 0.4 ± 0.1 | 0.2 ± 0.1 | reduced internalised fraction |  |  |  |  |  | 
O=C(O)CC[C@H](NC(=O)N[C@@H](CCCCNC(=O)[C@H](Cc1ccc2ccccc2c1)NC(=O)[C@H]1CC[C@H](CNC(=O)CN2CCN(CC(=O)O)CCN(CC(=O)O)CCN(CC(=O)O)CC2)CC1)C(=O)O)C(=O)O [PSMA-617, reference compound] |  | 0.6 ± 0.2 |  |  | 1.5 ± 0.4 |  |  |  | 
O=C(O)CC[C@H](NC(=O)N[C@@H](CCCCNC(=O)[C@H](Cc1cccc(I)c1)NC(=O)[C@H]1CC[C@H](CNC(=O)CN2CCN(CC(=O)O)CCN(CC(=O)O)CCN(CC(=O)O)CC2)CC1)C(=O)O)C(=O)O [Ij, (((S)-1-carboxy-5-((S)-3-(3-iodophenyl)-2-((1r,4S)-4-((2-(4,7,10-tris(carboxymethyl)-1,4,7,10-tetraazacyclododecan-1-yl)acetamido)methyl)cyclohexane-1-carboxamido)propanamido)pentyl)carbamoyl)-L-glutamic acid trifluoroacetic acid salt] | 2.3 ± 0.2 | 0.8 ± 0.3 |  |  |  | higher than or comparable to PSMA-617; also recorded: comparable to PSMA-617 |  |  | 
O=C(O)CC[C@H](NC(=O)N[C@@H](CCCCNC(=O)[C@H](Cc1ccccc1I)NC(=O)[C@H]1CC[C@H](CNC(=O)CN2CCN(CC(=O)O)CCN(CC(=O)O)CCN(CC(=O)O)CC2)CC1)C(=O)O)C(=O)O [Ii, (((S)-1-carboxy-5-((S)-3-(2-iodophenyl)-2-((1r,4S)-4-((2-(4,7,10-tris(carboxymethyl)-1,4,7,10-tetraazacyclododecan-1-yl)acetamido)methyl)cyclohexane-1-carboxamido)propanamido)pentyl)carbamoyl)-L-glutamic acid trifluoroacetic acid salt] | 1.1 ± 0.4 | 0.7 ± 0.1 | comparable to PSMA-617 |  |  |  | increased at later time points compared to PSMA-617 | comparable or superior to values observed for PSMA-617 | 
O=C(O)CC[C@H](NC(=O)N[C@@H](CCCCNC(=O)[C@H](Cc1ccc2ccccc2c1)NC(=O)[C@H]1CC[C@H](CNC(=O)[C@H](Cc2ccc(I)cc2)NC(=O)CN2CCN(CC(=O)O)CCN(CC(=O)O)CCN(CC(=O)O)CC2)CC1)C(=O)O)C(=O)O [Im, (((S)-1-carboxy-5-((S)-2-((1S,4S)-4-(((S)-3-(4-iodophenyl)-2-(2-(4,7,10-tris(carboxymethyl)-1,4,7,10-tetraazacyclododecan-1-yl)acetamido)propanamido)methyl)cyclohexanecarboxamido)-3-(naphthalen-2-yl)propanamido)pentyl)carbamoyl)-L-glutamic acid trifluoroacetic acid salt] | 1.6 ± 0.5 | 0.9 ± 0.5 |  |  |  | higher than or comparable to PSMA-617; also recorded: comparable to PSMA-617 |  | comparable or superior to values observed for PSMA-617 | higher tumor uptake compared to PSMA-617
